Among the data in ChEMBL document CHEMBL3244111, “Nitrones. 7. alpha-Quinoxalinyl-N-substituted nitrone 1,4-dioxides” (J Med Chem, 1977) are ED50, LD50 and Activity values, retold here.

Each structure is given as a SMILES string. Active and inactive are the calls of the source. The rule behind the calls is not given here.

Series [1] deals with Proteus vulgaris. The experiment in a line: In vivo antibacterial activity against Proteus vulgaris infected in CF1 mouse assessed as protection against bacterial infection administered as two doses. The series is classed as functional.
In series [2] the test system is Shigella dysenteriae. The experiment in a line: In vivo antibacterial activity against Shigella dysenteriae infected in CF1 mouse assessed as protection against bacterial infection administered as two doses. The series is classed as functional.
The subject of series [3] is Streptococcus pneumoniae. The experiment in a line: In vivo antibacterial activity against Diplococcus pneumoniae I infected in CF1 mouse assessed as protection against bacterial infection administered as two doses. It is filed as functional.
The subject of series [4] is Klebsiella pneumoniae. The experiment in a line: In vivo antibacterial activity against Klebsiella pneumoniae infected in CF1 mouse assessed as protection against bacterial infection administered as two doses. The series is classed as functional.
The test system of series [5] is Shigella flexneri. The experiment in a line: In vivo antibacterial activity against Shigella paradysenteriae infected in CF1 mouse assessed as protection against bacterial infection administered as two doses. The series is classed as functional.
The nature of series [6]: Acute toxicity in po dosed mouse administered as single dose. It is filed as organism-based. The following applies: in vivo.
Series [7] concerns Streptococcus pyogenes. The experiment in a line: In vivo antibacterial activity against Streptococcus pyogenes infected in CF1 mouse assessed as protection against bacterial infection administered as two doses. It is filed as functional.
Series [8] is described as follows: Acute toxicity in ip dosed mouse administered as single dose. It is filed as organism-based. To be noted: in vivo.
Series [9] deals with Salmonella typhimurium. The experiment in a line: In vivo antibacterial activity against Salmonella typhimurium infected in CF1 mouse assessed as protection against bacterial infection administered as two doses. It is filed as functional, Salmonella enterica subsp. enterica serovar Typhimurium. The following applies: Salmonella enterica.
The subject of series [10] is Escherichia coli. The experiment in a line: In vivo antibacterial activity against Escherichia coli infected in CF1 mouse assessed as protection against bacterial infection administered as two doses. The series is classed as functional.
Series [11] is described as follows: Acute toxicity in sc dosed mouse administered as single dose. It is filed as organism-based. To be noted: in vivo.
Series [12] relates to Listeria monocytogenes. The experiment in a line: In vivo antibacterial activity against Listeria monocytogenes infected in CF1 mouse assessed as protection against bacterial infection administered as two doses. The series is classed as functional.
Series [13] concerns Staphylococcus aureus. The experiment in a line: In vivo antibacterial activity against Staphylococcus aureus infected in CF1 mouse assessed as protection against bacterial infection administered as two doses. It is filed as functional.
Series [14] relates to Salmonella. The experiment in a line: In vivo antibacterial activity against Salmonella schottmuelleri infected in CF1 mouse assessed as protection against bacterial infection administered as two doses. It is filed as functional.
For series [15], the system named is Pasteurella multocida. The experiment in a line: In vivo antibacterial activity against Pasteurella multocida infected in CF1 mouse assessed as protection against bacterial infection administered as two doses. The series is classed as functional.
For series [16], the system named is Pseudomonas aeruginosa. The experiment in a line: In vivo antibacterial activity against Pseudomonas aeruginosa infected in sc dosed CF1 mouse assessed as protection against bacterial infection administered as two doses. The series is classed as functional.
The test system of series [17] is Salmonella enteritidis. The experiment in a line: In vivo antibacterial activity against Salmonella enteriditis infected in CF1 mouse assessed as protection against bacterial infection administered as two doses. It is filed as functional, Salmonella enterica subsp. enterica serovar Enteritidis. To be noted: Salmonella enterica.
Series [18] concerns Salmonella. The experiment in a line: In vivo antibacterial activity against Salmonella typhosa infected in CF1 mouse assessed as protection against bacterial infection administered as two doses. It is filed as functional.
Series [19] deals with Proteus mirabilis. The experiment in a line: In vivo antibacterial activity against Proteus mirabilis infected in CF1 mouse assessed as protection against bacterial infection administered as two doses. It is filed as functional.
Series [20] concerns Histomonas meleagridis. The experiment in a line: In vivo antiprotozoal activity against Histomonas meleagridis infected in turkey. The series is classed as functional, organism-based.

On to `Cc1c(/C=[N+](\C)[O-])[n+]([O-])c2ccccc2[n+]1[O-]`, for which the 50% effective dose (ED50) is 35 mg/kg in series [1]; 62 mg/kg in series [2]; 32 mg/kg in series [3]; 6 mg/kg in series [4]; 13 mg/kg in series [5]; 35 mg/kg in [7]. For the same compound, the ED50 is 16 mg/kg in series [9]; 10 mg/kg in series [10]; over 100 mg/kg in series [12]; 74 mg/kg in series [13]; 1.5 mg/kg in series [14]; 7 mg/kg in [15]. Further, the ED50 in [16] is over 250 mg/kg; in [17], 2 mg/kg; in series [18], 10 mg/kg; in series [19], 18 mg/kg. In addition, the LD50 in series [6] is over 1000 mg/kg; in [8], 596 mg/kg; in [11] it was 596 mg/kg. In addition, the outcome in series [20] was inactive.
For `O=C(N[C@H](CO)[C@H](O)c1ccc([N+](=O)[O-])cc1)C(Cl)Cl` [CHLORAMPHENICOL], the ED50 is over 100 mg/kg in series [1]; 61 mg/kg in series [2]; 20 mg/kg in series [4]; 27 mg/kg in series [7]; 16 mg/kg in [9]; 41 mg/kg in series [10]. Further, the ED50 is over 100 mg/kg in series [12]; 27 mg/kg in series [13]; 9 mg/kg in series [14]; 11 mg/kg in series [15]; 29 mg/kg in series [17]; 24 mg/kg in [18]. Also, the ED50 in series [19] was found to be 52 mg/kg. In addition, the LD50 worked out at 2640 mg/kg in series [6] and 1320 mg/kg in series [8]. Further, the outcome in series [20] was inactive.
Take `O=[N+]([O-])c1ccc(/C=[N+](/[O-])CCO)o1` [NIFURATRONE]: the ED50 is over 100 mg/kg in series [3]; 39 mg/kg in [4]; 46 mg/kg in series [5]; 47 mg/kg in [7]; 30 mg/kg in [9]; 27 mg/kg in series [10]. Also, the ED50 in [12] was over 100 mg/kg; in [13], 26 mg/kg; in series [14], 8 mg/kg; in [15], under 50 mg/kg; in series [16], over 100 mg/kg; in [17], 47 mg/kg. Further, the ED50 is 31 mg/kg in [18] and 53 mg/kg in [19]. Further, the LD50 in [6] turned out to be 518 mg/kg; in [11], 417 mg/kg. In addition, the result in [20] was inactive.
